Results as given in PubChem BioAssay (NCI).
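All cell lines were grown in 96-well plates and treated with compound for 48 hours. TGI denotes the concentration required for complete inhibition of growth.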

Columns and labels:
Experiment in all cases: NCI tumour cell line growth inhibition, 48 h
786-0 renal = test system: 786-0 renal
A498 renal = test system: A498 renal
A549 NSCLC = test system: A549 NSCLC
ACHN renal = test system: ACHN renal
CAKI-1 renal = test system: CAKI-1 renal
CCRF-CEM leukemia = test system: CCRF-CEM leukemia
COLO 205 colon = test system: COLO 205 colon
DLD-1 colon = test system: DLD-1 colon
DMS 114 small cell lung = test system: DMS 114 small cell lung
EKVX NSCLC = test system: EKVX NSCLC
HCC-2998 colon = test system: HCC-2998 colon
HCT-116 colon = test system: HCT-116 colon
HCT-15 colon = test system: HCT-15 colon
HL-60(TB) leukemia = test system: HL-60(TB) leukemia
HOP-18 NSCLC = test system: HOP-18 NSCLC
HOP-62 NSCLC = test system: HOP-62 NSCLC
HOP-92 NSCLC = test system: HOP-92 NSCLC
HT29 colon = test system: HT29 colon
IGROV1 ovarian = test system: IGROV1 ovarian
K-562 leukemia = test system: K-562 leukemia
KM12 colon = test system: KM12 colon
KM20L2 colon = test system: KM20L2 colon
LOX IMVI melanoma = test system: LOX IMVI melanoma
LXFL 529 NSCLC = test system: LXFL 529 NSCLC
M14 melanoma = test system: M14 melanoma
M19-MEL melanoma = test system: M19-MEL melanoma
MALME-3M melanoma = test system: MALME-3M melanoma
MOLT-4 leukemia = test system: MOLT-4 leukemia
NCI-H226 lung = test system: NCI-H226 lung
NCI-H23 lung = test system: NCI-H23 lung
NCI-H460 lung = test system: NCI-H460 lung
OVCAR-3 ovarian = test system: OVCAR-3 ovarian
OVCAR-4 ovarian = test system: OVCAR-4 ovarian
OVCAR-5 ovarian = test system: OVCAR-5 ovarian
OVCAR-8 ovarian = test system: OVCAR-8 ovarian
RPMI-8226 leukemia = test system: RPMI-8226 leukemia
RXF 393 renal = test system: RXF 393 renal
SF-268 CNS = test system: SF-268 CNS
SF-295 CNS = test system: SF-295 CNS
SF-539 CNS = test system: SF-539 CNS
SK-MEL-2 melanoma = test system: SK-MEL-2 melanoma
SK-MEL-28 melanoma = test system: SK-MEL-28 melanoma
SK-MEL-5 melanoma = test system: SK-MEL-5 melanoma
SK-OV-3 ovarian = test system: SK-OV-3 ovarian
SN12C renal = test system: SN12C renal
SNB-19 CNS = test system: SNB-19 CNS
SNB-75 CNS = test system: SNB-75 CNS
SNB-78 CNS = test system: SNB-78 CNS
SW-620 colon = test system: SW-620 colon
TK-10 renal = test system: TK-10 renal
UACC-257 melanoma = test system: UACC-257 melanoma
UACC-62 melanoma = test system: UACC-62 melanoma
UO-31 renal = test system: UO-31 renal
XF 498 CNS = test system: XF 498 CNS

## CC(=O)OC1CC2C(C)(C)C(=O)C=C[C@]2(C)C2CCC3(C)C(=CC(=O)C3c3ccoc3)[C@]12C (some centres undefined)
786-0 renal
  TGI: 31.1 µM
A498 renal
  TGI: 33.9 µM
A549 NSCLC
  TGI: 41 µM
ACHN renal
  TGI: 40.1 µM
CAKI-1 renal
  TGI: > 100 µM
CCRF-CEM leukemia
  TGI: 30 µM
COLO 205 colon
  TGI: 34.6 µM
DLD-1 colon
  TGI: 31 µM
DMS 114 small cell lung
  TGI: 27.6 µM
EKVX NSCLC
  TGI: 37.7 µM
HCC-2998 colon
  TGI: 26 µM
HCT-116 colon
  TGI: 24.9 µM
HCT-15 colon
  TGI: 26.1 µM
HL-60(TB) leukemia
  TGI: 34.1 µM
HOP-18 NSCLC
  TGI: 33.8 µM
HOP-62 NSCLC
  TGI: 31.1 µM
HOP-92 NSCLC
  TGI: 45.6 µM
HT29 colon
  TGI: 32.1 µM
IGROV1 ovarian
  TGI: 57.9 µM
K-562 leukemia
  TGI: > 100 µM
KM12 colon
  TGI: 35.5 µM
KM20L2 colon
  TGI: 28.2 µM
LOX IMVI melanoma
  TGI: 31.4 µM
LXFL 529 NSCLC
  TGI: 74.2 µM
M14 melanoma
  TGI: 61.7 µM
M19-MEL melanoma
  TGI: 33.5 µM
MALME-3M melanoma
  TGI: 34.4 µM
MOLT-4 leukemia
  TGI: 34 µM
NCI-H226 lung
  TGI: 35.6 µM
NCI-H23 lung
  TGI: 29.5 µM
NCI-H460 lung
  TGI: 34.1 µM
OVCAR-3 ovarian
  TGI: 25.8 µM
OVCAR-4 ovarian
  TGI: 50.5 µM
OVCAR-5 ovarian
  TGI: 37.8 µM
OVCAR-8 ovarian
  TGI: 41 µM
RPMI-8226 leukemia
  TGI: 36.1 µM
RXF 393 renal
  TGI: 10.1 µM
SF-268 CNS
  TGI: 33.1 µM
SF-295 CNS
  TGI: 28.7 µM
SF-539 CNS
  TGI: 31.2 µM
SK-MEL-2 melanoma
  TGI: 34.5 µM
SK-MEL-28 melanoma
  TGI: 32.6 µM
SK-MEL-5 melanoma
  TGI: 26.4 µM
SK-OV-3 ovarian
  TGI: 35.6 µM
SN12C renal
  TGI: 32.5 µM
SNB-19 CNS
  TGI: 29.2 µM
SNB-75 CNS
  TGI: 36.1 µM
SNB-78 CNS
  TGI: > 100 µM
SW-620 colon
  TGI: 26 µM
TK-10 renal
  TGI: 30 µM
UACC-257 melanoma
  TGI: 48.2 µM
UACC-62 melanoma
  TGI: 31.6 µM
UO-31 renal
  TGI: 33 µM
XF 498 CNS
  TGI: 42.8 µM
